Data: paper PMC4546427, “Stereoselective Regulation of P-gp Activity by Clausenamide Enantiomers in Caco-2, KB/KBv and Brain Microvessel Endothelial Cells” (PLoS ONE, 2015)
Where “and” joins values, the source holds several entries; their conditions need not be identical. Identical values can stand only once.

How the values were obtained:
[1] = target: T1, P-gp (Homo sapiens, UniProt P08183); assay: Rh123 accumulation in KBv cells; assay type: cell-based; conditions: for Percentage of rhodamine 123 accumulation relative to vehicle treatment: positive = increase; for Effect on P-gp efflux activity when combined with verapamil (in words): higher concentration CLA 10 μmol/L plus verapamil 200 μmol/L
T1 construct: three cells expressing P-gp, Caco-2, KBv and rat brain microvessel endothelial cells (RBMEC); endogenous in cells; host or cells: Caco-2
Procedure: KB or its vinblastine-resistance derivative KBv cells[19] were maintained on 6-well plates (5 × 10^5 cells/well) in […] medium with 10% FBS, 100 units/mL penicillin and 100 μg/mL streptomycin sulphate at 37°C with 95% air and 5% CO2. After reaching 80%–90% confluence, the two cells were treated with the following agents, respectively: vehicle; (−)CLA (5 or 10 μmol/L); (+)CLA (5 or 10 μmol/L). Additionally, the KBv cells were treated with verapamil (200 μmol/L); or individual enantiomer (5 or 10 μmol/L) plus verapamil (200 μmol/L). Rh123 (5 μmol/L) were finally added to these wells. Subsequently, cell incubation, solubilisation and Rh123 accumulation were performed by using the same method for Caco-2 cells.

[2] = parameters: method as in PMID 18655159; conditions: cited from earlier work
[3] = system: P-gp; assay: P-gp expression in KB cells: Western blots; assay type: cell-based, Human; conditions: 5 μmol/L, 24 h, normalized to GAPDH
Procedure: The sensitive, non-induced KB cells on 6-well plates were grown to 80%–90% confluence and incubated with the following agents for 24 h at 37°C and 5% CO2: vehicle, (−)CLA (1 or 5 μmol/L), (+)CLA (1 or 5 μmol/L), or verapamil (100 μmol/L). The cells were washed 3 times with ice-cold PBS (pH 7.4) and were lysed with 80 μL of lysis buffer described above. Lysates were frozen with liquid nitrogen, thawed in water at 37°C three times and centrifuged at 15,000 ×g for 10 min. The protein concentration of the supernatant was determined by Lowry’s method with bovine serum albumin as the standard. Proteins (48 μg) were separated by SDS-PAGE on a 10% separating gel and 4% stacking gel, and were transferred onto Immobilon-P membranes. The transferred proteins were treated with a blocking buffer (5% non-fat dried milk and 0.02% NP-40 in PBS) and then incubated with P-gp or GAPDH antibodies (at a 1:100 dilution) or HRP-conjugated secondary antibodies (1:1000 dilution) at 37°C for 1 h, respectively. The protein bands were visualized with enhanced chemiluminescence according to the manufacturer’s instructions. The density of the bands was quantified by scanning densitometry (LAS-3000 Imaging System, Fujifilm, Japan; and Kodak Digital Science 1D Analysis Software, Rochester, NY, USA) and was expressed as normalized values to GAPDH.

[4] = target: T1, P-gp; assay: Rh123 accumulation in Caco-2 cells; assay type: cell-based; conditions: for Percentage of rhodamine 123 accumulation relative to vehicle treatment: positive = increase; for More Rh123 accumulation than verapamil alone: verapamil 200 μmol/L plus CLA 5 μmol/L
Procedure: (§1) Caco-2 cells were seeded onto 6-well plates at a density of 5 × 10^5 cells/well and maintained in MEM supplemented with 10% (v/v) FBS, 1% (v/v) NEAA, 100 units/mL penicillin and 100 μg/mL streptomycin sulphate in a humidified 37°C incubator with 5% CO2. Upon 80%–90% confluence, the cells were provided new complete medium (2 mL/well) and exposed, to vehicle, (−)CLA (1 or 5 μmol/L), (+)CLA (1 or 5 μmol/L), verapamil (200 μmol/L) or individual enantiomer (1 or 5 μmol/L) plus verapamil (200 μmol/L). Then, Rh123 (5 μmol/L) was added to all the wells. After incubation at 37°C and 5% CO2 for 2 h which was designed by the pharmacokinetic parameters of CLA enantiomers, the cells were washed 3 times with 2 mL of ice-cold PBS (pH 7.4), lysed in 400 μL of lysis buffer [50 mmol/L Tris-HCl (pH 8.0), 150 mmol/L NaCl, 0.1% SDS, 100 μg/mL PMSF, 1 μg/mL aprotinin and 1% Nonidet P-40], and then were placed on ice for 40 min. The plates were wrapped in tinfoil. The fluorescence of Rh123 in each well was detected by Spectra Max Gemini XS plate reader (Molecular Devices Corp., Sunnyvale, CA, USA) with excitation and emission wavelengths of 488 nm and 530 nm, respectively. Meanwhile, 10 μL of cell lysates were collected from each well to measure protein concentration using Lowry’s method. Intracellular Rh123 accumulation was normalized by protein concentration (mg/mL) and then was calculated by a standard curve of Rh123 at three concentrations (2.5–10 μmol/L), in parallel with the lysis experiment.

[5] = system: P-gp; assay: Rh123 accumulation summarized over Caco-2, KBv and RBMECs; assay type: cell-based; conditions: mean of Caco-2, RBMEC, KBv
Procedure: as §1
The experimental programs in this part were approved by the Animal Care and Welfare Committee in our institute. Animals were treated in accordance with national/international guidelines. Primary cultures of brain microvessel endothelial cells were prepared from Sprague—Dawley rats (10–12 days old; Beijing Vital River Company, Beijing, China), as previously described by Qian et al.[21]. The gray matter of animals was taken out and minced into small pieces of approximately 1 mm^3 in ice-cold MEM medium, then dissociated by using 2 mg/mL collagenase containing DNase at a final concentration of 10.5 μg/ml on a shaker for 20 min at 37°C. The cells were pelleted by centrifugation(1000 rpm, 10 min, 4°C) and digested once again according to the above protocol. Then 20% dextran(Mr 40,000) was added to the cells for differential centrifugation at 2000 rpm for 10 min. The cells were re-suspended in complete MEM medium and passed through 74-μm stainless steel mesh. […] The P-gp expression in cultured cells was determined by Western blot analyses using a mouse monoclonal antibody raised against amino acids 1040–1280 of P-gp. […]

[6] = high dose, CLA 10 μmol/L, Rh123 5 μmol/L
[7] = low dose, CLA 5 μmol/L, Rh123 5 μmol/L
[8] = high dose, CLA 5 μmol/L, Rh123 5 μmol/L, 2 h
[9] = low dose, CLA 1 μmol/L, Rh123 5 μmol/L, 2 h

T1 sequence (P08183 whole entry): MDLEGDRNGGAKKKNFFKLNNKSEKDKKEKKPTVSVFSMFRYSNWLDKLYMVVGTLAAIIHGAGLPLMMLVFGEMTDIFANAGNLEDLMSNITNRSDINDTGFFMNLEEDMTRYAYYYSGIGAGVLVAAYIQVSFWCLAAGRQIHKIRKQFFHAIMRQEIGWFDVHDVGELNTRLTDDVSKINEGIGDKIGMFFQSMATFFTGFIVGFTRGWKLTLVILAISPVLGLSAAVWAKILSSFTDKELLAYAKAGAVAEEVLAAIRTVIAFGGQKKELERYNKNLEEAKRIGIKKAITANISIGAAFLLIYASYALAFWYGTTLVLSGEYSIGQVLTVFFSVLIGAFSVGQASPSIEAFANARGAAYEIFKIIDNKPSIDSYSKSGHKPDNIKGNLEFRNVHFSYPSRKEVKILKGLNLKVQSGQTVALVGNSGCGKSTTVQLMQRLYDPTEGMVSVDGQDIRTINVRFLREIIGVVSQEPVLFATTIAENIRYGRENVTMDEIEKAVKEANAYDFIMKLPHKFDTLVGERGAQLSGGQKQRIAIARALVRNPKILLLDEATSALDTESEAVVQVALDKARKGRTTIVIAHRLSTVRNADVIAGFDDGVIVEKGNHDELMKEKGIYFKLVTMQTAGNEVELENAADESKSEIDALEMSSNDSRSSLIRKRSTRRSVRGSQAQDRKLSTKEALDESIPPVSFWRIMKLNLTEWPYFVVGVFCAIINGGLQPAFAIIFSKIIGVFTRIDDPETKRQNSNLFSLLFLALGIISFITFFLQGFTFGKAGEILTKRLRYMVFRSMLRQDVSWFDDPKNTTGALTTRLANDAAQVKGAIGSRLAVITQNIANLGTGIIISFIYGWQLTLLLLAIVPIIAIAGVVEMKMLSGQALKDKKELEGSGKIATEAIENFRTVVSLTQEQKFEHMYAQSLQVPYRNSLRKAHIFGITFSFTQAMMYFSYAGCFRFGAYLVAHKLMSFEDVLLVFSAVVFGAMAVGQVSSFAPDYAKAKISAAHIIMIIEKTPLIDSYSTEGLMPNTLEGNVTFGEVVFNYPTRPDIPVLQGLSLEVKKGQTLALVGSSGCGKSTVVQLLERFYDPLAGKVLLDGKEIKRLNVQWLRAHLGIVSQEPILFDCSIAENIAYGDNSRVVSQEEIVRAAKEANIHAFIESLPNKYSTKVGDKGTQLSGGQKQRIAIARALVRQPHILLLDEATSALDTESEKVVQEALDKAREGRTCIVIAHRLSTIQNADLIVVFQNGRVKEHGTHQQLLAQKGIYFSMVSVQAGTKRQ

| Percentage of rhodamine 123 accumulation relative to vehicle treatment [1, 6] | Effect on P-gp efflux activity when combined with verapamil (in words) [1] | Antagonism of the inhibition of verapamil to P-gp relative to verapamil treatment alone ([1]; low concentration CLA 5 μmol/L plus verapamil 200 μmol/L) [%] | Percentage of rhodamine 123 accumulation relative to vehicle treatment [1, 7] | Decrease of Rh123 intracellular accumulation vs. control ([1]; lower concentration, CLA 5 μmol/L, Rh123 5 μmol/L) [%] | Decrease of Rh123 intracellular accumulation relative to vehicle control ([4]; CLA 1 μmol/L, Rh123 5 μmol/L, 2 h) [%] | Reduction of Rh123 intracellular concentration relative to verapamil treatment alone ([4]; co-treatment CLA 1 μmol/L with verapamil 200 μmol/L) [%] | Percentage of rhodamine 123 accumulation relative to vehicle treatment [4, 8] | Percentage of rhodamine 123 accumulation relative to vehicle treatment [4, 9] | More Rh123 accumulation than verapamil alone [4] [%] | Compound | AUC0–∞ in target tissues (hippocampus, cortex and cerebellum), comparison of enantiomers [2] | P-gp expression upregulated relative to vehicle control [3] [%] | Percentage of rhodamine 123 accumulation relative to vehicle treatment, Mean±SD, n = 3 ([5]; high dose) [%] | Percentage of rhodamine 123 accumulation relative to vehicle treatment, Mean±SD, n = 3 ([5]; low dose) [%] | Amount that entered into rat brain, comparison of enantiomers ([2]; 15 min after oral administration, P < 0.001) | P-gp expression downregulated relative to vehicle control [3] [%] |
| --- | --- | --- | --- | --- | --- | --- | --- | --- | --- | --- | --- | --- | --- | --- | --- | --- |
| 24.5% and 24.49% | synergistic effect | 35.5 | -25.92% | 25.9 | 11.7 | 29.3 | 58.2% and 58.22% | -11.68% | 23.1 | CN1C(=O)[C@H](O)[C@@H](c2ccccc2)[C@H]1[C@H](O)c1ccccc1 [(+)CLA, 3R,4S,5S,6R-CLA] | greater values for AUC0–∞ than did (−)CLA | 54.5 | 41.28±16.86 | -19.21±7.16 |  |  |
| 30.0% | synergistic effect |  | 8.2% and 8.16% |  |  |  | 63.0% and 62.97% | 28.5% and 28.51% | 24.2 | CN1C(=O)[C@@H](O)[C@H](c2ccccc2)[C@@H]1[C@@H](O)c1ccccc1 [(−)CLA, 3S, 4R, 5R, 6S-clausenamide] |  |  | 50.48±17.88 | 18.90±10.22 | significantly greater than that of the (+)-isomer | 15.9 |
